# What was measured:
# Aspergillus fumigatus = assay: Anti-proliferation assay, Aspergillus fumigatus; format: cell-based; conditions: Amphotericin B 0.00 μM, read-out: Percent inhibition of proliferation
# Procedure: (§1) Using the method described below, we tested the ability of the combination of various concentrations of amphotericin B plus disulfiram to inhibit the proliferation of numerous yeast strains using particle density as an indicator of cell number.
# The Aspergillus fumigatus strain was obtained from the American Type Culture Collection (ATCC 46645). Aspergillus cultures were stored in 15% glycerol at −70° C. Isolates were cultured on Sabouraud glucose (SAB) agar plates at 37° C. for 5 to 7 days. Condidia were collected by addung 5 to 10 mL of sterile saline containing 0.05% Tween 20 to the plates and loosening condidia with a swab. Using a pipette, condidia were collected suspension and placed in a sterile bottle. This was repeated for all plates. After harvesting the suspension was filtered through gauze into a clean, sterile bottle. The turbidity of the supernatants was measured spectrophometrically at 530 nm and the transmission adjusted to 80-82% with PBS (with 0.05% Tween 20) to yield an initial suspension of 1×10^6 CFU/mL.
# (§2) The following compounds were used: disulfiram and amphotericin B (both from Sigma Chemical Co.). In the anti-proliferation experiments, Gentian Violet was used as a positive control for antifungal activity. Stock solutions of each compound were prepared in DMSO and stored at −20° C. Prior to use, stock solutions were diluted in RPMI to produce 10× solutions. 10× disulfiram (0-7 μL) and 10× amphotericin B (0-7 μL) were then plated in 40 μL of in 384 well microtiter plates to form a matrix of compound combinations.
# (§3) All antifungal susceptibility testing was performed according to document M-27A as published by the National Committee for Clinical Laboratory Standards (Reference Method for Broth Dilution Antifungal Susceptibility Testing of Yeasts (1997), Wayne, Pa.). Briefly, yeast inocula from overnight cultures were standardized to a turbidity equivalent to a 0.5 McFarland Standard using a spectrophotometer at 530 nm, giving rise to a stock solution of 1×10^6 cells/mL. Each yeast suspension was further diluted in growth medium to yield a final inoculum concentration of approximately 4×10^3 cells/mL. Forty microlitres of the inoculum were used to inoculate each well, resulting in a final concentration of 2×10^3 cells/mL. Drug-free controls were included on each plate. Plates were incubated for 16 hours at 32° C. The amount of cell growth was determined by particle density as read on a Nephelometer (BMG Lab Technologies; Durham, N.C.).
# [1] = tested on: Candida albicans Strain 17; assay: Anti-proliferation assay, Candida albicans Strain 17; format: cell-based; conditions: STRAIN17, Amphotericin B 0.00 μM (r16), read-out: Percent inhibition of proliferation
# Excerpt: as §1
# (§4) Two clinical Candida albicans isolates (one triazole-resistant strain and one triazole-susceptible strain) were obtained from the culture collection if the Seattle Biomedical Research Institute (Seattle, Wash.). Additional fungal strains were obtained from the American Type Culture Collection triazole-resistant C. albicans: ATCC MYA-573, C. glabrata: ATCC 90030. Yeast cultures were stored in 15% glycerol at −70° C. Isolates were cultured in growth medium (RPMI 1640; 2% glucose without NaHCO3 and phenol red, buffered with 0.165 M MOPS to pH 7.0) at 35° C. for 24 hours prior to in vitro susceptibility testing. All media reagents were purchased from Sigma Chemical Co. (St. Louis, Mo.).
# as §2, §3
# Candida glabrata = assay: Anti-proliferation assay, Candida glabrata; format: cell-based; conditions: Nakaseomyces glabratus, Amphotericin B 0.00 μM (r15), read-out: Percent inhibition of proliferation
# Excerpt: as §1, §4, §2, §3
# [2] = cited from earlier work
# [3] = tested on: Candida albicans Strain 1; assay: Anti-proliferation assay, Candida albicans Strain 1; format: cell-based; conditions: STRAIN1, Amphotericin B 0.00 μM (r16), read-out: Percent inhibition of proliferation
# Excerpt: as §1, §4, §2, §3
# Candida albicans MYA 573 = assay: Anti-proliferation assay, Candida albicans MYA 573; format: cell-based; conditions: MYA573, Amphotericin B 0.00 μM (r16), read-out: Percent inhibition of proliferation
# Excerpt: as §1, §4, §2, §3
compound,measurement,setting,value
"CCN(CC)C(=S)SSC(=S)N(CC)CC [Disulfiram, bis(diethylthiocarbamoyl) disulfide]",inhibition at 0.04 µM,Aspergillus fumigatus; Disulfiram 0.04 μM,0.66%
same,inhibition at 0.08 µM,Aspergillus fumigatus; Disulfiram 0.08 μM,-2.93%
same,inhibition at 0.16 µM,Aspergillus fumigatus; Disulfiram 0.16 μM,-2.21%
same,inhibition at 0.31 µM,Aspergillus fumigatus; Disulfiram 0.31 μM,-13.1%
same,inhibition at 0.63 µM,Aspergillus fumigatus; Disulfiram 0.63 μM,-0.75%
same,inhibition at 1.25 µM,Aspergillus fumigatus; Disulfiram 1.25 μM,6.07%
same,inhibition at […],Aspergillus fumigatus; Disulfiram 2.50 μM,14.9%
same,inhibition at 5 µM,Aspergillus fumigatus; Disulfiram 5.00 μM,31.7%
same,inhibition at 10 µM,Aspergillus fumigatus; Disulfiram 10.00 μM,37.2%
same,inhibition at 0.01 µM,[1]; Disulfiram 0.01 μM,-3.64%
same,inhibition at 0.02 µM,[1]; Disulfiram 0.02 μM,-0.03%
same,inhibition at 0.04 µM,[1]; Disulfiram 0.04 μM,-0.15%
same,inhibition at 0.07 µM,[1]; Disulfiram 0.07 μM,2.27%
same,inhibition at 0.14 µM,[1]; Disulfiram 0.14 μM,2.66%
same,inhibition at 0.28 µM,[1]; Disulfiram 0.28 μM,22.9%
same,inhibition at 0.56 µM,[1]; Disulfiram 0.56 μM,30.5%
same,inhibition at 1.12 µM,[1]; Disulfiram 1.12 μM,53.4%
same,inhibition at 0.01 µM,Candida glabrata; Disulfiram 0.01 μM,-10.4%
same,inhibition at 0.02 µM,Candida glabrata; Disulfiram 0.02 μM,-1.67%
same,inhibition at 0.04 µM,Candida glabrata; Disulfiram 0.04 μM,1.52%
same,inhibition at 0.07 µM,Candida glabrata; Disulfiram 0.07 μM,1.92%
same,inhibition at 0.14 µM,Candida glabrata; Disulfiram 0.14 μM,2.12%
same,inhibition at 0.28 µM,Candida glabrata; Disulfiram 0.28 μM,19.6%
same,inhibition at 0.56 µM,Candida glabrata; Disulfiram 0.56 μM,61.3%
same,inhibition at 1.12 µM,Candida glabrata; Disulfiram 1.12 μM,88.7%
same,soluble in alcohol,[2]; alcohol,about 3.8 mg/100 mL
same,soluble in water,[2]; water,about 20 mg/100 mL
same,inhibition at 0.01 µM,[3]; Disulfiram 0.01 μM,5.3%
same,inhibition at 0.02 µM,[3]; Disulfiram 0.02 μM,9.08%
same,inhibition at 0.04 µM,[3]; Disulfiram 0.04 μM,10.1%
same,inhibition at 0.07 µM,[3]; Disulfiram 0.07 μM,11.7%
same,inhibition at 0.14 µM,[3]; Disulfiram 0.14 μM,18.2%
same,inhibition at 0.28 µM,[3]; Disulfiram 0.28 μM,26.9%
same,inhibition at 0.56 µM,[3]; Disulfiram 0.56 μM,54.5%
same,inhibition at 1.12 µM,[3]; Disulfiram 1.12 μM,89.6%
same,inhibition at 0.01 µM,Candida albicans MYA 573; Disulfiram 0.01 μM,-5.62%
same,inhibition at 0.02 µM,Candida albicans MYA 573; Disulfiram 0.02 μM,1.7%
same,inhibition at 0.04 µM,Candida albicans MYA 573; Disulfiram 0.04 μM,10.3%
same,inhibition at 0.07 µM,Candida albicans MYA 573; Disulfiram 0.07 μM,25.2%
same,inhibition at 0.14 µM,Candida albicans MYA 573; Disulfiram 0.14 μM,39.3%
same,inhibition at 0.28 µM,Candida albicans MYA 573; Disulfiram 0.28 μM,55.6%
same,inhibition at 0.56 µM,Candida albicans MYA 573; Disulfiram 0.56 μM,78.3%
same,inhibition at 1.12 µM,Candida albicans MYA 573; Disulfiram 1.12 μM,95%

# — patent US20040157837A1, “Combinations for the treatment of fungal infections” (priority 2002, published 2004)
